Reference: patent publication US10913727B2, “Modulators of the integrated stress pathway” (Calico Life Sciences LLC, priority 2016, dated 2021)
pEC50: −log10 of the molar value.

These compounds were tested on HEK293T cells carrying the ATF4 luciferase reporter (assay: ATF4-Luc assay, in vitro model of Vanishing Cell White Matter Disease (VWMD)). Conditions: Homo sapiens, HEK-293T, 1 μg/mL tunicamycin, 7 hours, One Glo luminescence.
Type: cell-based
Procedure: In order to test exemplary compounds of the invention in a cellular context, a stable VWMD cell line was first constructed. The ATF4 reporter was prepared by fusing the human full-length ATF4 5′-UTR (NCBI Accession No. BC022088.2) in front of the firefly luciferase (FLuc) coding sequence lacking the initiator methionine as described in Sidrauski et al (eLife 2013). The construct was used to produce recombinant retroviruses using standard methods and the resulting viral supernatant was used to transduce HEK293T cells, which were then subsequently selected with puromycin to generate a stable cell line.
HEK293T cells carrying the ATF4 luciferase reporter were plated on polylysine coated 384-well plates (Greiner Bio-one) at 30,000 cells per well. Cells were treated the next day with 1 μg/mL tunicamycin and 200 nM of a compound of Formula (I) for 7 hours. Luminescence was measured using One Glo (Promega) as specified by the manufacturer. Cells were maintained in DMEM with L-glutamine supplemented with 10% heat-inactivated FBS (Gibco) and Antibiotic-Antimycotic solution (Gibco).
Table 2 below summarizes the EC50 data obtained using the ATF4-Luc assay for exemplary compounds of the invention.

`Cc1noc2ncc(C(=O)NC34CC(NC(=O)COc5ccc(Cl)c(F)c5)(C3)C4)cc12` [Compound 791, N-{3-[2-(4-chloro-3-fluorophenoxy)acetamido]bicyclo[1.1.1]pentan-1-yl}-3-methyl[1,2]oxazolo[5,4-b]pyridine-5-carboxamide] and `Cc1oncc1C(=O)NC12CC(NC(=O)COc3ccc(Cl)c(F)c3)(C1)C2` [Compound 908, N-{3-[2-(4-chloro-3-fluorophenoxy)acetamido]bicyclo[1.1.1]pentan-1-yl}-5-methyl-1,2-oxazole-4-carboxamide] cannot be ordered by pEC50: under 5.70 for the first, under 5.70 for the second.

`CCc1cc(C(=O)NC23CC(NC(=O)COc4ccc(Cl)c(F)c4)(C2)C3)[nH]n1` [Compound 275, N-{3-[2-(4-chloro-3-fluorophenoxy)acetamido]bicyclo[1.1.1]pentan-1-yl}-3-ethyl-1H-pyrazole-5-carboxamide] and `CCc1ccnc(C(=O)NC23CC(NC(=O)COc4ccc(Cl)c(F)c4)(C2)C3)c1` [Compound 197, N-{3-[2-(4-chloro-3-fluorophenoxy)acetamido]bicyclo[1.1.1]pentan-1-yl}-4-ethylpyridine-2-carboxamide] fall in the same range of pEC50: 6.60 to 7.30 for the first, 6.60 to 7.30 for the second.

Compared with `Cn1nc(C(C)(C)C)cc1C(=O)NC12CC(NC(=O)COc3ccc(Cl)c(F)c3)(C1)C2` [Compound 338, 3-tert-butyl-N-{3-[2-(4-chloro-3-fluorophenoxy)acetamido]bicyclo[1.1.1]pentan-1-yl}-1-methyl-1H-pyrazole-5-carboxamide], `Cc1cc(C)nc(C(=O)NC23CC(NC(=O)COc4ccc(Cl)c(F)c4)(C2)C3)c1` [Compound 889, N-{3-[2-(4-chloro-3-fluorophenoxy)acetamido]bicyclo[1.1.1]pentan-1-yl}-4,6-dimethylpyridine-2-carboxamide] is lower in pEC50: 6.60 to 7.30 for the first, 5.70 to 6.00 for the second.

First: Cn1cnc2noc(C(=O)NC34CCC(NC(=O)COc5ccc(Cl)c(F)c5)(CC3)C(O)C4)c21 (stereo not shown) [Compound 412, N-{4-[2-(4-chloro-3-fluorophenoxy)acetamido]-3-hydroxybicyclo[2.2.2]octan-1-yl}-4-methyl-4H-imidazo[4,5-c][1,2]oxazole-3-carboxamide]
Second: Cc1nc(C(=O)NC23CCC(NC(=O)COc4ccc(Cl)c(F)c4)(CC2)C(O)C3)c(C)o1 (stereo not shown) [Compound 472, N-{4-[2-(4-chloro-3-fluorophenoxy)acetamido]-3-hydroxybicyclo[2.2.2]octan-1-yl}-2,5-dimethyl-1,3-oxazole-4-carboxamide]
The pEC50 of the first is lower: under 5.70 for the first, 6.00 to 6.60 for the second. The second is the more potent here.

Going from `O=C(COc1ccc(Cl)c(F)c1)NC12CC(NC(=O)c3cnc4ccccc4n3)(C1)C2` [Compound 482, N-{3-[2-(4-chloro-3-fluorophenoxy)acetamido]bicyclo[1.1.1]pentan-1-yl}quinoxaline-2-carboxamide] to `O=C(COc1ccc(Cl)c(F)c1)NC12CC(NC(=O)c3cc4cccnc4s3)(C1)C2` [Compound 798, N-{3-[2-(4-chloro-3-fluorophenoxy)acetamido]bicyclo[1.1.1]pentan-1-yl}thieno[2,3-b]pyridine-2-carboxamide], the pEC50 falls from over 7.30 to under 5.70. The first is the more potent here.

Compared with `Cc1cc(C(=O)NC23CCC(NC(=O)COc4ccc5c(c4)OC(F)(F)O5)(CC2)[C@@H](O)C3)on1` [Compound 636, N-[(3S)-4-{2-[(2,2-difluoro-2H-1,3-benzodioxol-5-yl)oxy]acetamido}-3-hydroxybicyclo[2.2.2]octan-1-yl]-3-methyl-1,2-oxazole-5-carboxamide], `CC(C)(C)c1cnc(C(=O)NC23CCC(NC(=O)COc4ccc(Cl)c(F)c4)(CC2)[C@@H](O)C3)cn1` [Compound 705, 5-tert-butyl-N-{(3S)-4-[2-(4-chloro-3-fluorophenoxy)acetamido]-3-hydroxybicyclo[2.2.2]octan-1-yl}pyrazine-2-carboxamide] is lower in pEC50: 6.00 to 6.60 for the first, under 5.70 for the second. The first is the more potent here.

Compared with `O=C(COc1ccc(Cl)c(Cl)c1)NC12CC(NC(=O)c3cnc(C4CC4)o3)(C1)C2` [Compound 614, 2-cyclopropyl-N-{3-[2-(3,4-dichlorophenoxy)acetamido]bicyclo[1.1.1]pentan-1-yl}-1,3-oxazole-5-carboxamide], `CCc1ncc(C(=O)NC23CC(NC(=O)COc4ccc(Cl)c(Cl)c4)(C2)C3)o1` [Compound 674, N-{3-[2-(3,4-dichlorophenoxy)acetamido]bicyclo[1.1.1]pentan-1-yl}-2-ethyl-1,3-oxazole-5-carboxamide] is higher in pEC50: 6.60 to 7.30 for the first, over 7.30 for the second. The second is the more potent here.

Compared with `O=C(COc1ccc(Cl)c(Cl)c1)NC12CC(NC(=O)c3ccncn3)(C1)C2` [Compound 261, N-{3-[2-(3,4-dichlorophenoxy)acetamido]bicyclo[1.1.1]pentan-1-yl}pyrimidine-4-carboxamide], `O=C(COc1ccc(Cl)c(Cl)c1)NC12CC(NC(=O)c3ccc(CO)nc3)(C1)C2` [Compound 719, N-{3-[2-(3,4-dichlorophenoxy)acetamido]bicyclo[1.1.1]pentan-1-yl}-6-(hydroxymethyl)pyridine-3-carboxamide] is lower in pEC50: 6.00 to 6.60 for the first, 5.70 to 6.00 for the second. The first is the more potent here.

Compared with `Cn1cnc2cc(C(=O)NC34CC(NC(=O)COc5ccc(Cl)c(F)c5)(C3)C4)ccc2c1=O` [Compound 342, N-{3-[2-(4-chloro-3-fluorophenoxy)acetamido]bicyclo[1.1.1]pentan-1-yl}-3-methyl-4-oxo-3,4-dihydroquinazoline-7-carboxamide], `CCNC(=O)c1ccc(C(=O)NC23CC(NC(=O)COc4ccc(Cl)c(F)c4)(C2)C3)nc1` [Compound 270, N^2-{3-[2-(4-chloro-3-fluorophenoxy)acetamido]bicyclo[1.1.1]pentan-1-yl}-N^5-ethylpyridine-2,5-dicarboxamide] is lower in pEC50: 6.00 to 6.60 for the first, under 5.70 for the second.

First: O=C(COc1ccc(Cl)c(F)c1)NC12CC(NC(=O)c3cc(-c4ccc(Cl)cc4)no3)(C1)C2 [Compound 392, N-{3-[2-(4-chloro-3-fluorophenoxy)acetamido]bicyclo[1.1.1]pentan-1-yl}-3-(4-chlorophenyl)-1,2-oxazole-5-carboxamide]
Second: O=C(COc1ccc(Cl)c(F)c1)NC12CC(NC(=O)c3ccno3)(C1)C2 [Compound 311, N-{3-[2-(4-chloro-3-fluorophenoxy)acetamido]bicyclo[1.1.1]pentan-1-yl}-1,2-oxazole-5-carboxamide]
The pEC50 of the first is higher: over 7.30 for the first, 5.70 to 6.00 for the second.

First: O=C(COc1ccc(Cl)c(F)c1)NC12CC(NC(=O)c3ccsc3)(C1)C2 [Compound 306, N-{3-[2-(4-chloro-3-fluorophenoxy)acetamido]bicyclo[1.1.1]pentan-1-yl}thiophene-3-carboxamide]
Second: O=C(COc1ccc(Cl)c(F)c1)NC12CC(NC(=O)c3ccc[n+]([O-])c3)(C1)C2 [Compound 402, N-{3-[2-(4-chloro-3-fluorophenoxy)acetamido]bicyclo[1.1.1]pentan-1-yl}-1-oxo-1λ^5-pyridine-3-carboxamide]
The pEC50 of the first is higher: 6.00 to 6.60 for the first, under 5.70 for the second. The first is the more potent here.

`COc1cc(C(=O)NC23CC(NC(=O)COc4ccc(Cl)c(F)c4)(C2)C3)c(OC)nn1` [Compound 788, N-{3-[2-(4-chloro-3-fluorophenoxy)acetamido]bicyclo[1.1.1]pentan-1-yl}-3,6-dimethoxypyridazine-4-carboxamide] and `Cc1nc(C(=O)NC23CC(NC(=O)COc4ccc(Cl)c(F)c4)(C2)C3)c(C)o1` [Compound 795, N-{3-[2-(4-chloro-3-fluorophenoxy)acetamido]bicyclo[1.1.1]pentan-1-yl}-2,5-dimethyl-1,3-oxazole-4-carboxamide] cannot be ordered by pEC50: under 5.70 for the first, under 5.70 for the second.

Compared with `O=C(COc1ccc(Cl)c(F)c1)NC12CCC(NC(=O)c3ccccc3)(CC1)[C@@H](O)C2` [Compound 484, N-{(2S)-4-[2-(4-chloro-3-fluorophenoxy)acetamido]-2-hydroxybicyclo[2.2.2]octan-1-yl}benzamide], `Cc1c(C(=O)NC23CCC(NC(=O)COc4ccc(Cl)c(F)c4)(CC2)CC3O)cnn1-c1ccccc1` (stereo not shown) [Compound 221, N-{4-[2-(4-chloro-3-fluorophenoxy)acetamido]-2-hydroxybicyclo[2.2.2]octan-1-yl}-5-methyl-1-phenyl-1H-pyrazole-4-carboxamide] is lower in pEC50: 6.60 to 7.30 for the first, 5.70 to 6.00 for the second. The first is the more potent here.

`COCn1ccc(C(=O)NC23CC(NC(=O)COc4ccc(Cl)c(F)c4)(C2)C3)n1` [Compound 260, N-{3-[2-(4-chloro-3-fluorophenoxy)acetamido]bicyclo[1.1.1]pentan-1-yl}-1-(methoxymethyl)-1H-pyrazole-3-carboxamide] and `O=C(COc1ccc(Cl)c(F)c1)NC12CC(NC(=O)c3cncnc3)(C1)C2` [Compound 188, N-{3-[2-(4-chloro-3-fluorophenoxy)acetamido]bicyclo[1.1.1]pentan-1-yl}pyrimidine-5-carboxamide] fall in the same range of pEC50: 6.00 to 6.60 for the first, 6.00 to 6.60 for the second.

First: Cn1cc2ccnc(NC34CC(NC(=O)COc5ccc(Cl)c(F)c5)(C3)C4)c2n1 [Compound 493, 2-(4-chloro-3-fluorophenoxy)-N-{3-[(2-methyl-2H-pyrazolo[3,4-c]pyridin-7-yl)amino]bicyclo[1.1.1]pentan-1-yl}acetamide]
Second: O=C(COc1ccc(Cl)c(Cl)c1)NC12CC(NC(=O)c3ccc(OCCO)nc3)(C1)C2 [Compound 158, N-{3-[2-(3,4-dichlorophenoxy)acetamido]bicyclo[1.1.1]pentan-1-yl}-6-(2-hydroxyethoxy)pyridine-3-carboxamide]
The pEC50 of the first is higher: 6.60 to 7.30 for the first, 6.00 to 6.60 for the second. The first is the more potent here.

Work on `O=C(COc1ccc2c(c1)OC(F)(F)O2)NC12CC(NC(=O)c3ccc(OC(F)F)nc3)(C1)C2` [Compound 458, N-(3-{2-[(2,2-difluoro-2H-1,3-benzodioxol-5-yl)oxy]acetamido}bicyclo[1.1.1]pentan-1-yl)-6-(difluoromethoxy)pyridine-3-carboxamide] yielded a pEC50 of 6.60 to 7.30.
